Laboratory results reported in patent publication US4439426A, “Semisynthetic macrolidic antibiotics, intermediate compounds for their preparation and related pharmaceutical compositions containing them” (priority 1981, dated 1984).
Converted amounts (≈) assume the structure as drawn.

Columns and labels:
[1] = Stability in acidic environment at 25° C. (half-life of initial microbiological activity); type: physicochemical; conditions: aqueous solution
Method: Stability in acidic environnment at 25° C. of the novel
Note: t 1/2 represents the time for reducing to one half the initial powe
of the antibiotic determined by microbiological method through diffusion
on a plate using the test stock Microccocus luteus (Sarcina lutea) ATCC

[2] = system: Acholeplasma laidlawii ATCC 23206 LRP 204; assay: Bacteriostatic power in solid medium (MIC); type: cell-based; conditions: Acholeplasma laidlawii, ATCC23206, read-out: Minimum inhibiting concentration
Text: (§1) the bacteriostatic power, expressed as the minimum inhibiting concentration (MIC) against both aerobic and anaerobic, Gram positive and Gram negative, bacterial stocks: the related results are reported in the tables 2 and 3.

[3] = system: Bacillus subtilis LRP 25; assay: Bacteriostatic power in solid medium (MIC); type: cell-based; conditions: Bacillus subtilis, LRP25; solid medium; read-out: Minimum inhibiting concentration
Text: as §1

[4] = system: Bacteroides fragilis ATCC 23745 LRP 205; assay: Bacteriostatic power in solid medium (MIC); type: cell-based; conditions: Bacteroides fragilis, ATCC23745; solid medium; anaerobic; read-out: Minimum inhibiting concentration
Text: as §1

[5] = system: Corynebacterium diphteriae LRP 24; assay: Bacteriostatic power in solid medium (MIC); type: cell-based; conditions: Corynebacterium, LRP24; solid medium; read-out: Minimum inhibiting concentration
Text: as §1

[6] = system: Escherichia coli LRP 50; assay: Bacteriostatic power in solid medium (MIC); type: cell-based; conditions: Escherichia coli, LRP50; solid medium; read-out: Minimum inhibiting concentration
Text: as §1

[7] = system: Fusobacteriumnecrophroum ATCC 27852 LRP 210; assay: Bacteriostatic power in solid medium (MIC); type: cell-based; conditions: solid medium; anaerobic; read-out: Minimum inhibiting concentration
Text: as §1

[8] = system: Haemophilus influenzae ATCC 19418 LRP 213; assay: Bacteriostatic power in solid medium (MIC); type: cell-based; conditions: Haemophilus influenzae, ATCC19418; solid medium; read-out: Minimum inhibiting concentration
Text: as §1

[9] = system: Klelsiella pneumoniae LRP 54; assay: Bacteriostatic power in solid medium (MIC); type: cell-based; conditions: solid medium; read-out: Minimum inhibiting concentration
Text: as §1

[10] = system: Micrococcus luteus ATCC 15957 LRP 193; assay: Bacteriostatic power in solid medium (MIC); type: cell-based; conditions: Micrococcus luteus, ATCC15957; solid medium; Erythromycin resistant; read-out: Minimum inhibiting concentration
Text: as §1

[11] = system: Micrococcus luteus ATCC 9341 LRP 6; assay: Bacteriostatic power in solid medium (MIC); type: cell-based; conditions: Micrococcus luteus, ATCC9341; solid medium; read-out: Minimum inhibiting concentration
Text: as §1

[12] = system: Mycoplasma hominis I ATCC 14027 LRP 211; assay: Bacteriostatic power in solid medium (MIC); type: cell-based; conditions: Metamycoplasma hominis, ATCC14027; solid medium; read-out: Minimum inhibiting concentration
Text: as §1

[13] = system: Neisseria gonorrhoeae ATCC 19424 LRP 214; assay: Bacteriostatic power in solid medium (MIC); type: cell-based; conditions: Neisseria gonorrhoeae, ATCC19424; solid medium; read-out: Minimum inhibiting concentration
Text: as §1

[14] = system: Proteus vulgaris ATCC 6380 LRP 13; assay: Bacteriostatic power in solid medium (MIC); type: cell-based; conditions: Proteus vulgaris, ATCC6380; solid medium; read-out: Minimum inhibiting concentration
Text: as §1

[15] = system: Pseudomonas aeruginosa LRP 9; assay: Bacteriostatic power in solid medium (MIC); type: cell-based; conditions: Pseudomonas aeruginosa, LRP9; solid medium; read-out: Minimum inhibiting concentration
Text: as §1

[16] = system: Shigella sonnei LRP 5; assay: Bacteriostatic power in solid medium (MIC); type: cell-based; conditions: LRP5, read-out: Minimum inhibiting concentration
Text: as §1

[17] = system: Staphylococcus aureus ATCC 14154 LRP 78; assay: Bacteriostatic power in solid medium (MIC); type: cell-based; conditions: Staphylococcus aureus, ATCC14154; solid medium; Erythromycin resistant; read-out: Minimum inhibiting concentration
Text: as §1

[18] = system: Staphylococcus aureus ATCC 6538P LRP 14; assay: Bacteriostatic power in solid medium (MIC); type: cell-based; conditions: Staphylococcus aureus, ATCC6538P; solid medium; Penycilline resistant; read-out: Minimum inhibiting concentration
Text: as §1

[19] = system: Staphylococcus aureus ATCC 6538P LRP 39; assay: Bacteriostatic power in solid medium (MIC); type: cell-based; conditions: Staphylococcus aureus, ATCC6538P; solid medium; read-out: Minimum inhibiting concentration
Text: as §1

[20] = system: Streptococcus faecalis LRP 7; assay: Bacteriostatic power in solid medium (MIC); type: cell-based; conditions: Enterococcus faecalis, LRP7; solid medium; read-out: Minimum inhibiting concentration
Text: as §1

[21] = system: Streptococcus faecalis subsp. zymogenes ATCC 12958 LRP 61; assay: Bacteriostatic power in solid medium (MIC); type: cell-based; conditions: Enterococcus faecalis, ATCC12958; solid medium; read-out: Minimum inhibiting concentration
Text: as §1

[22] = system: Streptococcus pneumoniae ATCC 6303 LRP 35; assay: Bacteriostatic power in solid medium (MIC); type: cell-based; conditions: Streptococcus pneumoniae, ATCC6303; solid medium; read-out: Minimum inhibiting concentration
Text: as §1

[23] = system: Streptococcus pneumoniae ATCC 6303 LRP 52; assay: Bacteriostatic power in solid medium (MIC); type: cell-based; conditions: Streptococcus pneumoniae, ATCC6303; solid medium; read-out: Minimum inhibiting concentration
Text: as §1

[24] = system: Streptococcus pneumoniae ATCC 6303 LRP 53; assay: Bacteriostatic power in solid medium (MIC); type: cell-based; conditions: Streptococcus pneumoniae, ATCC6303; solid medium; read-out: Minimum inhibiting concentration
Text: as §1

[25] = system: Streptococcus pyogenes ATCC 8668 LRP 197; assay: Bacteriostatic power in solid medium (MIC); type: cell-based; conditions: Streptococcus pyogenes, ATCC8668; solid medium; read-out: Minimum inhibiting concentration
Text: as §1

[26] = system: Streptococcus pyogenes ATCC 8668 LRP 34; assay: Bacteriostatic power in solid medium (MIC); type: cell-based; conditions: Streptococcus pyogenes, ATCC8668; solid medium; read-out: Minimum inhibiting concentration
Text: as §1

[27] = system: Clostridium perfrigens ATCC 3624 LRP 206; assay: microbe, parasite or virus in culture; type: cell-based; conditions: ATCC3624, solid medium, anaerobic, read-out: Minimum inhibiting concentration
Text: as §1

[28] = system: Salmonella typhy LRP 8; assay: microbe, parasite or virus in culture; type: cell-based; conditions: LRP8, solid medium, read-out: Minimum inhibiting concentration
Text: as §1

[29] = system: Corynebacterium diphteriae LRP 24; assay: Bacteriostatic power in liquid medium (MIC); type: cell-based; conditions: Corynebacterium, LRP24; liquid medium; read-out: Minimum inhibiting concentration
Text: as §1

[30] = system: Staphylococcus aureus ATCC 6538 P LRP 39; assay: Bacteriostatic power in liquid medium (MIC); type: cell-based; conditions: Staphylococcus aureus, ATCC6538; liquid medium; read-out: Minimum inhibiting concentration
Text: as §1

[31] = system: Streptococcus faecalis subs. zymogenes ATCC 12958 LRP 61; assay: Bacteriostatic power in liquid medium (MIC); type: cell-based; conditions: Enterococcus faecalis, ATCC12958; liquid medium; read-out: Minimum inhibiting concentration
Text: as §1

[32] = system: Streptococcus pneumoniae ATCC 6303 LRP 35; assay: Bacteriostatic power in liquid medium (MIC); type: cell-based; conditions: Streptococcus pneumoniae, ATCC6303; liquid medium; read-out: Minimum inhibiting concentration
Text: as §1

[33] = system: Streptococcus pyogenes ATCC 8668 LRP 34; assay: Bacteriostatic power in liquid medium (MIC); type: cell-based; conditions: Streptococcus pyogenes, ATCC8668; liquid medium; read-out: Minimum inhibiting concentration
Text: as §1

[34] = system: Corynebacterium diphteriae LRP 24; assay: Minimum bactericidal concentration (MBC); type: cell-based
Text: (§2) the bacterial power, expressed as the minimum bactericidal power (MBC) against some Gram positive aerobic stocks (table 5).

[35] = system: Staphylococcus aureus ATCC 6538 P LRP 39; assay: Minimum bactericidal concentration (MBC); type: cell-based
Text: as §2

[36] = system: Streptococcus faecalis subs. zymogenes LRP 61; assay: Minimum bactericidal concentration (MBC); type: cell-based
Text: as §2

[37] = system: Streptococcus pneumoniae ATCC 6303 LRP 35; assay: Minimum bactericidal concentration (MBC); type: cell-based
Text: as §2

[38] = system: Streptococcus pyogenes ATCC 8668 LRP 34; assay: Minimum bactericidal concentration (MBC); type: cell-based
Text: as §2

Question: Which results are given for `CC[C@H]1OC(=O)[C@H](C)[C@@H](O[C@H]2C[C@@](C)(O)[C@@H](O)[C@H](C)O2)[C@H](C)[C@@H](O[C@@H]2O[C@H](C)C[C@H](N(C)C)[C@H]2O)[C@](C)(O)C[C@](C)(F)C(=O)[C@H](C)[C@@H](O)[C@H]1C` [P-80202, (8S)-8-fluoroerythromycin D]?
Answer: half-life ([1]; pH 2): 0.4 h; half-life ([1]; pH 3): 10 h; MIC [2]: 3.12 µg/mL (≈ 4.32 µM); MIC [3]: 0.049 µg/mL (≈ 0.0679 µM); MIC [4]: 0.39 µg/mL (≈ 0.54 µM); MIC [5]: 0.006 µg/mL (≈ 0.00831 µM); MIC [6]: 25 µg/mL (≈ 34.6 µM); MIC [7]: 6.25 µg/mL (≈ 8.66 µM); MIC [8]: 6.25 µg/mL (≈ 8.66 µM); MIC [9]: 25 µg/mL (≈ 34.6 µM); MIC [10]: 25 µg/mL (≈ 34.6 µM); MIC [11]: 0.006 µg/mL (≈ 0.00831 µM); MIC [12]: 25 µg/mL (≈ 34.6 µM); MIC [13]: 0.097 µg/mL (≈ 0.134 µM); MIC [14]: 25 µg/mL (≈ 34.6 µM); MIC [15]: 25 µg/mL (≈ 34.6 µM); MIC [16]: 25 µg/mL (≈ 34.6 µM); MIC [17]: 25 µg/mL (≈ 34.6 µM); MIC [18]: 0.097 µg/mL (≈ 0.134 µM); MIC [19]: 0.097 µg/mL (≈ 0.134 µM); MIC [20]: 0.097 µg/mL (≈ 0.134 µM); MIC [21]: 0.097 µg/mL (≈ 0.134 µM); MIC [22]: 0.024 µg/mL (≈ 0.0332 µM); MIC [23]: 0.024 µg/mL (≈ 0.0332 µM); MIC [24]: 0.024 µg/mL (≈ 0.0332 µM); MIC [25]: 0.024 µg/mL (≈ 0.0332 µM); MIC [26]: 0.024 µg/mL (≈ 0.0332 µM); MIC [27]: 3.12 µg/mL (≈ 4.32 µM); MIC [28]: 12.5 µg/mL (≈ 17.3 µM); MIC [29]: 0.012 µg/mL (≈ 0.0166 µM); MIC [30]: 0.195 µg/mL (≈ 0.27 µM); MIC [31]: 0.39 µg/mL (≈ 0.54 µM); MIC [32]: 0.049 µg/mL (≈ 0.0679 µM); MIC [33]: 0.049 µg/mL (≈ 0.0679 µM); MBC/MIC [34]: 16; MBC ([34]; Corynebacterium, LRP24, read-out: Minimum bactericidal concentration (MBC)): 0.195 µg/mL (≈ 0.27 µM); MBC/MIC [35]: 16; MBC ([35]; Staphylococcus aureus, ATCC6538, read-out: Minimum bactericidal concentration (MBC)): 3.12 µg/mL (≈ 4.32 µM); MBC/MIC [36]: 8; MBC ([36]; Enterococcus faecalis, read-out: Minimum bactericidal concentration (MBC)): 3.12 µg/mL (≈ 4.32 µM); MBC/MIC [37]: 4; MBC ([37]; Streptococcus pneumoniae, ATCC6303, read-out: Minimum bactericidal concentration (MBC)): 0.195 µg/mL (≈ 0.27 µM); MBC/MIC [38]: 8; MBC ([38]; Streptococcus pyogenes, ATCC8668, read-out: Minimum bactericidal concentration (MBC)): 0.39 µg/mL (≈ 0.54 µM)
